Key:
TIP60-KAT5 [1] = target: T1, TIP60-KAT5 (Homo sapiens, UniProt Q92993); assay: Acetyltransferase biochemical assay (AlphaScreen), KAT5; details: Table 1 (TIP60-KAT5); 0.4 μM Acetyl coenzyme A, histone H4, 10 nM enzyme
T1 construct: encoding amino acid residues 2 to 461 (Uniprot Q92993-2) of human KAT5 isoform; made in house; host or cells: E. coli BL21 DE3

HBO-KAT7 [2] = target: T2, HBO-KAT7 (Homo sapiens, UniProt O95251); assay: Acetyltransferase biochemical assay (AlphaScreen), KAT7; details: Table 3 (HBO-KAT7); 0.4 μM Acetyl coenzyme A, histone H3.1, 40 nM enzyme
T2 construct: encoding amino acid residues 325 to 611 (Uniprot 095251-1) of human KAT7; made in house; host or cells: E. coli BL21 DE3 RIL

MOF-KAT8 [3] = target: T3, MOF-KAT8 (Homo sapiens, UniProt Q9H7Z6); assay: Acetyltransferase biochemical assay (AlphaScreen), KAT8; details: Table 4 (MOF-KAT8); 0.4 μM Acetyl coenzyme A, histone H4, 20 nM enzyme
T3 sequence (Q9H7Z6 177-447): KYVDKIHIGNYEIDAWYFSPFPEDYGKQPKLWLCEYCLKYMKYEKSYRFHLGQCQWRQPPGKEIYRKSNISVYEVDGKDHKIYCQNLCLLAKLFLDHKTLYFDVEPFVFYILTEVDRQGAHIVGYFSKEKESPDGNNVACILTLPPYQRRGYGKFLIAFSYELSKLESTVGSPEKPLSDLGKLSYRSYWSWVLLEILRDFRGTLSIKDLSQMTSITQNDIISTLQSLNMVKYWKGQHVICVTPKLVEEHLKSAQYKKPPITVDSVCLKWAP

[4] = test system: histone H3K14 acetylation (HBO1 mediated) in U2OS cells; assay: Histone H3 Lysine 14 Acetylation Biomarker Assay (96 well, U2OS); assay type: cell-based; details: Homo sapiens, 24 h, Table 6, H3K14ac, 24 hours incubation, serum free medium
Summary of the method: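 U2OS cells treated 24 h with compound in serum-free medium, then fixed and immunostained for H3K14ac (Alexa647) with Hoechst nuclear stain. High-content imaging gives mean nuclear intensity per cell, converted to % inhibition against DMSO and 10 μM reference-inhibitor controls; IC50 from four-parameter logistic fit.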

[5] = test system: histone H2A.Z Lysine 7 acetylation (TIP60 mediated) in U2OS cells; assay: H2A.Z Lysine 7 Acetylation Biomarker Assay (96 well, U2OS); assay type: cell-based; details: Homo sapiens, Table 7, H2A.Z K7ac, 24 hours incubation, serum free medium
Protocol: To discover a global TIP60/KAT5 cellular biomarker useful for monitoring PD responses of TIP60 inhibition in vitro and in vivo, various histone modifications were assessed for TIP60 dependence through genetic (TIP60 siRNA and CRISPR/Cas9) or TIP60 pharmacological inhibition. This analysis clearly identified acetylation of the histone variant H2A.Z at Lysine 7 (H2A.ZK7ac) as a global histone mark which is TIP60-dependent in both human and mouse cells. To a lesser extent, TIP60 also acetylated lysine 4 and 11 of H2A.Z.
Compounds may be tested for their ability to inhibit the histone H2A.Z Lysine 7 acetylation biomarker (which is TIP60 mediated) in the following assay:
The cell line U2OS was seeded at a density of 9,000 cells per well in 96 well optical quality tissue culture plates in RPMI medium and 10% foetal bovine serum, and allowed to adhere for 24 hours under standard culture conditions (37 degree Celsius, 5% CO2). At the end of this period the cells were washed with serum free medium. Compound dilutions prepared in DMSO were added to the serum free medium, with negative control wells reserved for treatment with DMSO only and positive controls receiving a potent inhibitor compound (e.g. Example 146) at 20 μM concentration. After incubation for 24 hours, the cells were fixed with 3.7% formaldehyde in PBS for 20 minutes at room temperature, washed with phosphate buffer saline containing 0.1% Tween 20 and blocked with Odyssey blocking buffer (LI-COR, Lincoln, Nebr.) containing 0.1% TritonX100. Anti-H2A.Z K7ac specific antibody (Abcam) in Odyssey blocking buffer containing 0.1% Tween 20 was added and incubated for 14 hours at 4 degree Celsius. After washing, a secondary antibody labelled with Alexa647 dye (LifeTechnologies) and Hoechst 33342 (10 μM, SigmaAldrich) were added for 1 hour incubation. Plates were washed and read on a PerkinElmer Phenix high content imaging platform. Using a Columbus image analysis pipeline, individual nuclei were located by Hoechst 33342 stain and the acetylation level was calculated from the Alexa647-related intensity in the same area. The resulting mean intensity per cell was directly converted to percent inhibition relative to controls on the same plate and the data fitted against a four-parameter logistic model to determine the 50% inhibitory concentration (IC50).

MOZ-KAT6A = target: T4, MOZ-KAT6A (Homo sapiens, UniProt Q92794, A567V); assay: Revised Acetyltransferase Biochemical Assay, KAT6A; details: Table 8 (MOZ-KAT6A), 1 μM Acetyl coenzyme A
T4 construct: encoding amino acid residues 507 to 778 (Uniprot Q92794-1) of human KAT6A; made in house; host or cells: E. coli BL21 DE3

HBO-KAT7 [6] = target: T2, HBO-KAT7; assay: Revised Acetyltransferase Biochemical Assay, KAT7; details: Table 9 (HBO-KAT7), 1 μM Acetyl coenzyme A
TIP60-KAT5 [7] = target: T1, TIP60-KAT5; assay: Revised Acetyltransferase Biochemical Assay, KAT5; details: 10 nM KAT5, 1 μM AcCoA, 100 nM histone H4, 90 min
MOF-KAT8 [8] = target: T3, MOF-KAT8; assay: Revised Acetyltransferase Biochemical Assay, KAT8

T4 sequence (Q92794 507-778 A567V limits assumed): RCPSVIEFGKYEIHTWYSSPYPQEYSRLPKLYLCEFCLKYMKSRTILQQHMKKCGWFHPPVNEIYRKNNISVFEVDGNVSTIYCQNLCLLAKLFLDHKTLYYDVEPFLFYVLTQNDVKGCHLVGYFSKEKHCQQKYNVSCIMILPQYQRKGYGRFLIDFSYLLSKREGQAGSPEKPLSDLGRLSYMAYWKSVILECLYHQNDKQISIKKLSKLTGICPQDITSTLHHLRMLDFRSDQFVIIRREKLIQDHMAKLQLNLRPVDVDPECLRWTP
T1 sequence (Q92993 2-461 isoform Q92993-2): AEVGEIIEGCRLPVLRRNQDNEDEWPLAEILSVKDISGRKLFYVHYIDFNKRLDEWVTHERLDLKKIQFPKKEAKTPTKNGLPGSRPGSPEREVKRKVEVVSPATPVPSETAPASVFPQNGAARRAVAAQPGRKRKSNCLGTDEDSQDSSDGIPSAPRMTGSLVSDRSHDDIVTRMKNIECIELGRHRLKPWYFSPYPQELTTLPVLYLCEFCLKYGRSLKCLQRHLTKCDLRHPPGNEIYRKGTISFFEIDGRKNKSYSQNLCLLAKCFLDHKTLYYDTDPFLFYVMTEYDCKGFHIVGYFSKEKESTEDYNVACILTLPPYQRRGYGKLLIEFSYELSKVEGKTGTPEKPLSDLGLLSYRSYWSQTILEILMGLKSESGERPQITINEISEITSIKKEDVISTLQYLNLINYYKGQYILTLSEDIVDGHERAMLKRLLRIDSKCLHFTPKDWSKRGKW
T2 sequence (O95251 with tags, fused parts or gaps): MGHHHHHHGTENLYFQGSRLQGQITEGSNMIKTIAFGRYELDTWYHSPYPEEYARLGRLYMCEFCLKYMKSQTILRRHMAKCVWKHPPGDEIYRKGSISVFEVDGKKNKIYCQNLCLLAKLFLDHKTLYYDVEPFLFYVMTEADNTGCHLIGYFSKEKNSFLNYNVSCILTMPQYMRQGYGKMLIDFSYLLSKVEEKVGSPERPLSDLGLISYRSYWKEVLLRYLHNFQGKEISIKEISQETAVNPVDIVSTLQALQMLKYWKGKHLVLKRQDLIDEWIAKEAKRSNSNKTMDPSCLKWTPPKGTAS

IC50 (TIP60-KAT5 [1]) [nM]	IC50 (HBO-KAT7 [2]) [nM]	IC50 (MOF-KAT8 [3]) [nM]	IC50 [4] [nM]	IC50 [5] [nM]	IC50 (MOZ-KAT6A) [nM]	IC50 (HBO-KAT7 [6]) [nM]	IC50 (TIP60-KAT5 [7]) [nM]	IC50 (MOF-KAT8 [8]) [nM]	SMILES
286	63.8	14600	317	2180	5	76	68	4540	O=C(NCC(c1ccccc1)c1ncco1)C1=Nc2ccc(Br)cc2S(=O)(=O)N1 (centres unmarked) [Example 1, 7-Bromo-N-(2-(oxazol-2-yl)-2-phenylethyl)-2H-benzo[e][1,2,4]thiadiazine-3-carboxamide 1,1-dioxide]
9710	2650	88200	8160	30000	64	1080	4050	99400	O=C(NCC(c1ccccc1)c1ncco1)C1=Nc2ccccc2S(=O)(=O)N1 (centres unmarked) [Example 46, N-(2-(oxazol-2-yl)-2-phenylethyl)-2H-benzo[e][1,2,4]thiadiazine-3-carboxamide 1,1-dioxide]
327	555		1610	2060	10	201	58	24000	O=C(NCCc1ccccc1-n1nccn1)C1=Nc2ccc(I)cc2S(=O)(=O)N1 [Example 60, N-(2-(2H-1,2,3-triazol-2-yl)phenethyl)-7-iodo-2H-benzo[e][1,2,4]thiadiazine-3-carboxamide 1,1-dioxide]
209	339	12100	615	10000	24	74	90	21100	O=C(NCCc1ccccc1OC(F)F)C1=Nc2ccc(I)cc2S(=O)(=O)N1 [Example 91]
